Test systems include 786-0; A498; ACHN; CAKI-1; HCT-116; HCT-15; HL-60; HOP-18; HT-29; MDA-N; MOLT-4; NCI-H226; NCI-H460; OVCAR-8; PC-3; RXF 393; SK-MEL-2; SK-MEL-5; SW-620; T47D.
Assay in all cases: NCI anticancer screen, dose series, 48 h

Structures are written as SMILES.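 Briefly, cells in 96-well plates were exposed to five compound concentrations for 48 h, and endpoints were estimated by linear interpolation. At the GI50, growth is halved.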 Active and inactive are the calls of the source. Rule as the data show it: active = GI50 up to about 1.1 µM and inactive = higher.

The values that follow come from ChEMBL document CHEMBL1201862, “PubChem BioAssay data set” (2004).

For `COC1=C(OC)C(=O)c2cc(C)c(=O)c(C)cc2C1=O`, the GI50 in the experiment on 786-0 is 11900 nM (inactive); with A498, 24200 nM (inactive); in the experiment on ACHN, 14800 nM (inactive); with CAKI-1, 17300 nM (inactive); in the experiment with HCT-116, 15300 nM (inactive); in the experiment with HCT-15 it was 21300 nM. In addition, the GI50 in the experiment with HL-60 is 2820 nM (inactive); with HOP-18 it was 16300 nM (inactive); in the experiment with HT-29, 22100 nM (inactive); in the experiment with MDA-N, 2530 nM (inactive); in the experiment with MOLT-4, 2270 nM (inactive); in the experiment with NCI-H226, 18600 nM (inactive). Besides, the GI50 in the experiment on NCI-H460 was 24700 nM (inactive); in the experiment on OVCAR-8, 17300 nM (inactive); with PC-3, 20300 nM (inactive); in the experiment with RXF 393, 15300 nM (inactive); with SK-MEL-2, 17300 nM (inactive); in the experiment on SK-MEL-5 it was 15800 nM (inactive). Besides, the GI50 in the experiment with SW-620 is 8610 nM (inactive); in the experiment with T47D it was 28600 nM (inactive).
In the case of `N#Cc1c(-c2ccc(Cl)cc2)c(-c2ccc(Cl)cc2)nn(CCOC(=O)CCC(=O)O)c1=O`, the GI50 with 786-0 is 755 nM (active); in the experiment on A498 it was 652 nM (active); in the experiment with ACHN it was 1450 nM (inactive); with CAKI-1, 1830 nM (inactive); in the experiment with HCT-116, 600 nM (active); in the experiment with HCT-15 it was 532 nM. For the same compound, the GI50 in the experiment on HL-60 was 339 nM (active); with HOP-18 it was 29200 nM (inactive); with HT-29, 796 nM (active); in the experiment on MDA-N it was 80 nM (active); in the experiment with MOLT-4, 566 nM (active); with NCI-H226, 258 nM (active). The GI50 was 807 nM (active) with NCI-H460; 1020 nM (active) in the experiment with OVCAR-8; 423 nM (active) in the experiment with PC-3; 327 nM (active) with RXF 393; 221 nM (active) in the experiment with SK-MEL-2; 166 nM (active) in the experiment with SK-MEL-5. For the same compound, the GI50 in the experiment on SW-620 was 995 nM (active); in the experiment with T47D, > 32300 nM (inactive).
